Measurements published in ChEMBL document CHEMBL5260838 (J Med Chem, 2019).
Activity calls are given as the source filed them. The rule behind the calls is not given here.

Tests used:
[1] = Half-life in Sprague-Dawley rat at 1 mg/kg, iv; type: ADME, organism-based; settings: in vivo
[2] = system: Mus musculus; assay: Analgesic activity against formalin-induced pain in FVB mouse model assessed as reduction in formalin-induced pain at 10 mg/kg, po administered for 120 mins prior to formalin challenge and measured after 11 to 40 mins; type: functional, organism-based; settings: time 131-160 min
[3] = Efflux ratio of apparent permeability across basolateral to apical side over apical to basolateral side in MDCK1 cells; type: ADME, cell-based, Canis lupus familiaris; settings: dog, MDCK
[4] = biological target: Sodium channel protein type 8 subunit alpha (Homo sapiens, UniProt Q9UQD0); assay: Inhibition of human Nav1.6 alpha subunit expressed in HEK293 cells co-expressing beta1 subunit at -35 mV holding potential by PatchXpress automated voltage clamp electrophysiology technique; type: cell-based
Sodium channel protein type 8 subunit alpha, sequence (Q9UQD0 whole entry): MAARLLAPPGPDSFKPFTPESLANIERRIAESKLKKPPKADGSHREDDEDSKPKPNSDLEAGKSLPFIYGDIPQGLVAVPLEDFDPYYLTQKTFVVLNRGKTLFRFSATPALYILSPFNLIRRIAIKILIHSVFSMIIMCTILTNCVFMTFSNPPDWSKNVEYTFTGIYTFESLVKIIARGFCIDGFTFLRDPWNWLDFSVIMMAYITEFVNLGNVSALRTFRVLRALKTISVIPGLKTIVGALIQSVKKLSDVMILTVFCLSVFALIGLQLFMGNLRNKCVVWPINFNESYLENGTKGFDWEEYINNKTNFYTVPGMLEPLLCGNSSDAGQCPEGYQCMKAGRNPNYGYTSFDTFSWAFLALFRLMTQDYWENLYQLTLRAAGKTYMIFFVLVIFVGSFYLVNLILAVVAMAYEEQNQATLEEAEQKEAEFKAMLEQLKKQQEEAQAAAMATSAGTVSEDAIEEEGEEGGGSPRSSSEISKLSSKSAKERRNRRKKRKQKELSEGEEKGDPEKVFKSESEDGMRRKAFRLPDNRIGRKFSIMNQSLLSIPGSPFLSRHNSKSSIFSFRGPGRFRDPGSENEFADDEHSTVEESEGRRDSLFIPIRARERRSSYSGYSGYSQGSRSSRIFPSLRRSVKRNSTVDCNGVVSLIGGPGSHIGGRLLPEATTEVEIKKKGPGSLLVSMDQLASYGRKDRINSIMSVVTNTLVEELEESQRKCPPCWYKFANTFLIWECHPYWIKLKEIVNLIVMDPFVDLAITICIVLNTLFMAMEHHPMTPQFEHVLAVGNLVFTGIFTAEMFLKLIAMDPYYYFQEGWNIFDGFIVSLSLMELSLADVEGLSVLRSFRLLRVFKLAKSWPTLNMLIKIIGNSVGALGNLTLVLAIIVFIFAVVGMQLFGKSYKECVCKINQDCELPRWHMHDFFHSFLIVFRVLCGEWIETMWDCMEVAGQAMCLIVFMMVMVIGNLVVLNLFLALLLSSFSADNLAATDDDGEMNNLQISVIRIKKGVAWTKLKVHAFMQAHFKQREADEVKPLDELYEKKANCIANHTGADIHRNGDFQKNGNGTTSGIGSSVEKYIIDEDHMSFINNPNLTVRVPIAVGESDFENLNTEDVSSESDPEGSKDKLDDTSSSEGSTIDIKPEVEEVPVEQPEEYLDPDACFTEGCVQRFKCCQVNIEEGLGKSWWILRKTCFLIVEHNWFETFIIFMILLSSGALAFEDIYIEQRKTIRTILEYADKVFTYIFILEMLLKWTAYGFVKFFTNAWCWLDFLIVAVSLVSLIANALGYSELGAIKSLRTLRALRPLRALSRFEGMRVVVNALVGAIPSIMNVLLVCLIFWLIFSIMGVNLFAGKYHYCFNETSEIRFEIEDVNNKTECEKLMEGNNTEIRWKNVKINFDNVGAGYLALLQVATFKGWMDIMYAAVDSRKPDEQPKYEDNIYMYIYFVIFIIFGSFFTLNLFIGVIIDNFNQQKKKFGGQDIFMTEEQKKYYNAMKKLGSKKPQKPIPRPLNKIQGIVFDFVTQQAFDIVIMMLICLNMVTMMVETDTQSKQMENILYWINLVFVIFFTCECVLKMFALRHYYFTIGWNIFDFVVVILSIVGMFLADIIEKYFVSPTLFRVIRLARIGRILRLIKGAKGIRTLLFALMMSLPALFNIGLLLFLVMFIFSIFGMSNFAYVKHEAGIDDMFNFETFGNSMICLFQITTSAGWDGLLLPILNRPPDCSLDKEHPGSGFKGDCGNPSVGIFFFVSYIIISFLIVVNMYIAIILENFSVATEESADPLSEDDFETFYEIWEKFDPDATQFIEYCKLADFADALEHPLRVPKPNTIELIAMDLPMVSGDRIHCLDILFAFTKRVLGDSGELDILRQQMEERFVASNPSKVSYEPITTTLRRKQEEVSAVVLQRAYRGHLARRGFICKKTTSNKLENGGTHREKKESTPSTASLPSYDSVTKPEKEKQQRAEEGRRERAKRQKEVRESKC

[5] = biological target: Sodium channel protein type 10 subunit alpha (Mus musculus, UniProt Q6QIY3); assay: Inhibition of TTX-resistant Nav1.8 in mouse dorsal root ganglion neuron by voltage clamp recording; type: tissue-based, DRG neuron
[6] = Clearance in Beagle dog at 0.5 mg/kg, iv; type: ADME, organism-based, Canis lupus familiaris; settings: in vivo
[7] = biological target: Sodium channel protein type 9 subunit alpha (Mus musculus, UniProt Q62205); assay: Inhibition of mouse Nav1.7 at -60 mV holding potential by PatchXpress automated voltage clamp electrophysiology technique
[8] = biological target: T1, Peroxisome proliferator-activated receptor gamma (Homo sapiens) (UniProt P37231); assay: Inhibition of PPARgamma (unknown origin) at 10 uM relative to control
T1 sequence (whole entry): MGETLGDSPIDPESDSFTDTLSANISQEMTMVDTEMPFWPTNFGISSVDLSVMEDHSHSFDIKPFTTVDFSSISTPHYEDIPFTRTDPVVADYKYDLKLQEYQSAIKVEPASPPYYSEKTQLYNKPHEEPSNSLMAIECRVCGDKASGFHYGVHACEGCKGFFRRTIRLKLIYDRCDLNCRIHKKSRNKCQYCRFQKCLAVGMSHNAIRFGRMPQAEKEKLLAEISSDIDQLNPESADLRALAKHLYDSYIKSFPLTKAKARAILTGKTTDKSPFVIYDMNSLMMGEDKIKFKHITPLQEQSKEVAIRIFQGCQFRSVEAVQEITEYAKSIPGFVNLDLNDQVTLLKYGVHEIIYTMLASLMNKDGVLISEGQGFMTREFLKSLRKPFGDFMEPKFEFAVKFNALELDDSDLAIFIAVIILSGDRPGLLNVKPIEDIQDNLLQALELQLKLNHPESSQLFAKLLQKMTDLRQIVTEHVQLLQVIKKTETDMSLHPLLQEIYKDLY

[9] = Drug concentration in plasma of orally dosed formalin-induced FVB mouse model of pain measured after 3 hrs by UPLC-ESI […] analysis; type: ADME, organism-based; settings: route po
[10] = Half-life in Beagle dog at 0.5 mg/kg, iv; type: ADME, organism-based, Canis lupus familiaris; settings: in vivo
[11] = Toxicity in FVB mouse assessed as tolerance; settings: in vivo
[12] = system: MDR1; assay: Efflux ratio of apparent permeability across basolateral to apical side over apical to basolateral side in MDCK1 cells expressing MDR1; type: ADME, cell-based, Canis lupus familiaris; settings: dog, MDCK-MDR1
[13] = Oral bioavailability in Sprague-Dawley rat at 5 mg/kg; type: ADME, organism-based; settings: in vivo
[14] = biological target: Cytochrome P450 3A4 (Homo sapiens, UniProt P08684); assay: Inhibition of CYP3A4 (unknown origin); type: ADME
Cytochrome P450 3A4, sequence (P08684 whole entry): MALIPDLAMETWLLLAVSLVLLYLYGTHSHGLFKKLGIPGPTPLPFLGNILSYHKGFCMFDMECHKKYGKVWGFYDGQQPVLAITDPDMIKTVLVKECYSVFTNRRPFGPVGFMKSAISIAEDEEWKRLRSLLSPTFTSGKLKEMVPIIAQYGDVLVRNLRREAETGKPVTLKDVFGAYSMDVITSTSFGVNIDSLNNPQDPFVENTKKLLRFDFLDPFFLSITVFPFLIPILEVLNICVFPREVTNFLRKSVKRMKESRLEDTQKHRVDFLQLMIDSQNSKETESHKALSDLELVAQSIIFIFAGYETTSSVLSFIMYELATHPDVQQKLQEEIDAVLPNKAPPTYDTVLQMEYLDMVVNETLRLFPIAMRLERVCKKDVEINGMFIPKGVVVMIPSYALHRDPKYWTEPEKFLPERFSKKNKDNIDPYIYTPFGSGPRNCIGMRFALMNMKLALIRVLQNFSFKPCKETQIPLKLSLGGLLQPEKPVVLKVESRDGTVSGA

[15] = Half-life in FVB mouse at 1 mg/kg, iv; type: ADME, organism-based; settings: in vivo, iv, 1 mg/kg
[16] = biological target: Sodium channel protein type 1 subunit alpha (Homo sapiens, UniProt P35498); assay: Inhibition of human Nav1.1 alpha subunit expressed in HEK293 cells co-expressing beta1 subunit at -40 mV holding potential by PatchXpress automated voltage clamp electrophysiology technique; type: cell-based
[17] = Volume of distribution at steady state in FVB mouse at 1 mg/kg, iv; type: ADME, organism-based; settings: in vivo, iv, 1 mg/kg
[18] = Cmax in FVB mouse at 30 mg/kg, po; type: ADME, organism-based; set-up: dose 30 mg/kg, route po; settings: in vivo
[19] = system: Mus musculus; assay: Antinociceptive activity against aconitine-induced pain in FVB mouse model expressing human Nav 1.7 I848T mutant assessed as reduction in nociceptive behavior at 10 mg/kg, po administered 120 mins prior to aconitine administration and measured after 70 mins relative to control; type: functional; set-up: scale not given: the % may be the effect or the level left; settings: time 190 min, 3.167 h
[20] = Lipophilicity, logD of the compound at pH 7.4; type: physicochemical; settings: buffer, read-out: logD
[21] = Half-life in Beagle dog at 1 mg/kg, po; type: ADME, organism-based, Canis lupus familiaris; settings: in vivo
[22] = system: Mus musculus; assay: Antinociceptive activity against aconitine-induced pain in FVB mouse model expressing human Nav 1.7 I848T mutant assessed as reduction in nociceptive behavior at 3 mg/kg, po administered 120 mins prior to aconitine administration and measured after 70 mins relative to control; type: functional; set-up: scale not given: the % may be the effect or the level left; settings: time 190 min, 3.167 h
[23] = Drug concentration in plasma of FVB mouse model of aconitine-induced pain expressing human Nav1.7 I848T mutant at 3 mg/kg, po administered 120 mins prior to aconitine administered and measured after 70 mins by UPLC-ESI MS/MS analysis; type: ADME, organism-based; settings: time 190 min
[24] = biological target: T2, Sodium channel protein type 9 subunit alpha (Homo sapiens, UniProt Q15858); assay: Displacement of [3H]GX-545 from human Nav1.7 alpha subunit expressed in HEK293 cells co-expressing beta1 subunit by liquid scintillation counting analysis; type: cell-based
T2 sequence (Q15858 whole entry): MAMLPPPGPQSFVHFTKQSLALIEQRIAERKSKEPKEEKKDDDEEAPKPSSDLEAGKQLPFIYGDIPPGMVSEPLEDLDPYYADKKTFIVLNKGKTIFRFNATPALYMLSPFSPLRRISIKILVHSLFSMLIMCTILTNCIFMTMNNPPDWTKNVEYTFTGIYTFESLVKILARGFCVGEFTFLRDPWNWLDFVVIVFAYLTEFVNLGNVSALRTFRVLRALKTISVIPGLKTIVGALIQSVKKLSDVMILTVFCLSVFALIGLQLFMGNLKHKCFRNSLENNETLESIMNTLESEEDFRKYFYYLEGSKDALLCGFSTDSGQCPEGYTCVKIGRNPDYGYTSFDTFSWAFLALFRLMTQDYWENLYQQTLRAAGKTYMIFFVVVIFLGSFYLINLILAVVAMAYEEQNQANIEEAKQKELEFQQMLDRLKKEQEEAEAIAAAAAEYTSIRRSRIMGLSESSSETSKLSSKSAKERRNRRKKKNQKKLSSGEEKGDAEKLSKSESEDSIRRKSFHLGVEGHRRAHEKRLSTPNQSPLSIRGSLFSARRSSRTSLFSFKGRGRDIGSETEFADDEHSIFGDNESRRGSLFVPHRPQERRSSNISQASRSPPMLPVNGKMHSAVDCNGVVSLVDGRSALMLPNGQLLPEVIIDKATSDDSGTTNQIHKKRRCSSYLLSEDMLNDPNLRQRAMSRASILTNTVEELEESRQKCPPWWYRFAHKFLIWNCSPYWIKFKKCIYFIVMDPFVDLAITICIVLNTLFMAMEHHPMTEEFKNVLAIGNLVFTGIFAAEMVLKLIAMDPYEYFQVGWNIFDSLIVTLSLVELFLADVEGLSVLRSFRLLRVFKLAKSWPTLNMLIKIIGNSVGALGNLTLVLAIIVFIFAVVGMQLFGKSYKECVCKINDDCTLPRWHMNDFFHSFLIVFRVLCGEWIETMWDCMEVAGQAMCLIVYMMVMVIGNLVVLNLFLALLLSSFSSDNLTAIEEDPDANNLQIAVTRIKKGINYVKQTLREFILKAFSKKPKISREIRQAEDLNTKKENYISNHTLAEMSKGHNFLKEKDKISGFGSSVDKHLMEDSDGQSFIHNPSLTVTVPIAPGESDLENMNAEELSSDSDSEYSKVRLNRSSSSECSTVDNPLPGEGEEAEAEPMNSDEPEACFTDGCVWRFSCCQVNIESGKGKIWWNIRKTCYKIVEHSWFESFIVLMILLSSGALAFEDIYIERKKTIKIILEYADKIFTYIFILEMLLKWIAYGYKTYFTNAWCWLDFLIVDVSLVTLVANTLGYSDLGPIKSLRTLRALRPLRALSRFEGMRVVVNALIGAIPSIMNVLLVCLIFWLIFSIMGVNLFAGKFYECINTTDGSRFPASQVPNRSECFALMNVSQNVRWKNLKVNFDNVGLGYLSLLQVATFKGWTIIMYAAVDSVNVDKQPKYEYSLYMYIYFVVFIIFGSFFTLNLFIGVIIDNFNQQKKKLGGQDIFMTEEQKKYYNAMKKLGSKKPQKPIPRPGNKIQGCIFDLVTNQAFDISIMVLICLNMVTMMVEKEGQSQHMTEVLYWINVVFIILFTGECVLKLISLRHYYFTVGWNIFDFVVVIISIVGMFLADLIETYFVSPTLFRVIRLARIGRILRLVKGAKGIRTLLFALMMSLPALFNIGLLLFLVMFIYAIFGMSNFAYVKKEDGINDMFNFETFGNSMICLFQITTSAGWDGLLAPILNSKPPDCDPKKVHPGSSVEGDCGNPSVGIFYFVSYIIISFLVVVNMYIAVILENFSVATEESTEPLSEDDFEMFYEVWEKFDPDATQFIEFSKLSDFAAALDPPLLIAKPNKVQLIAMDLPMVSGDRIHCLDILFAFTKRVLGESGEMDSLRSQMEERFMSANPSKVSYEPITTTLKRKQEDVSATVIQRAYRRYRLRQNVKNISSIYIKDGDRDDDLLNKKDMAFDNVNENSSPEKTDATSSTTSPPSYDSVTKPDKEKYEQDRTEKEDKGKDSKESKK

[25] = AUC in Beagle dog at 1 mg/kg, po; type: ADME, organism-based, Canis lupus familiaris; set-up: dose 1 mg/kg, route po; settings: in vivo
[26] = Oral bioavailability in Beagle dog at 1 mg/kg; type: ADME, organism-based, Canis lupus familiaris; settings: in vivo
[27] = Drug concentration in brain of FVB mouse model of aconitine-induced pain expressing human Nav1.7 I848T mutant at 10 mg/kg, po administered 120 mins prior to aconitine administered and measured after 70 mins by UPLC-ESI MS/MS analysis; type: ADME, organism-based; settings: time 190 min, read-out: Ct
[28] = system: mouse breast cancer resistant protein (Bcrp); assay: Efflux ratio of apparent permeability across basolateral to apical side over apical to basolateral side MDCK-II cells expressing mouse breast cancer resistant protein; type: ADME, cell-based, Canis lupus familiaris; settings: dog
[29] = Drug concentration in brain of FVB mouse model of aconitine-induced pain expressing human Nav1.7 I848T mutant at 3 mg/kg, po administered 120 mins prior to aconitine administered and measured after 70 mins by UPLC-ESI MS/MS analysis; type: ADME, organism-based; settings: time 190 min, read-out: Ct
[30] = system: Mus musculus; assay: Antinociceptive activity against aconitine-induced pain in FVB mouse model expressing human Nav 1.7 I848T mutant assessed as reduction in nociceptive behavior at 0.1 mg/kg, po administered 120 mins prior to aconitine administration and measured after 70 mins relative to control; type: functional; set-up: scale not given: the % may be the effect or the level left; settings: time 190 min, 3.167 h
[31] = system: MDR1; assay: Apparent permeability from apical to basolateral side in MDCK1 cells expressing MDR1; type: ADME, cell-based, Canis lupus familiaris; settings: dog, MDCK-MDR1
[32] = system: Mus musculus; assay: Antinociceptive activity against aconitine-induced pain in FVB mouse model expressing human Nav 1.7 I848T mutant assessed as reduction in nociceptive behavior at 1 mg/kg, po administered 120 mins prior to aconitine administration and measured after 70 mins relative to control; type: functional; set-up: scale not given: the % may be the effect or the level left; settings: time 190 min, 3.167 h
[33] = biological target: T2, Sodium channel protein type 9 subunit alpha; assay: Inhibition of human Nav1.7 alpha subunit expressed in HEK293 cells co-expressing beta1 subunit at -60 mV holding potential by whole-cell patch voltage clamp electrophysiology recording; type: cell-based
[34] = Protein binding in mouse plasma; type: ADME, cell-free; settings: read-out: PPB (converted)
[35] = organism: Homo sapiens; assay: Inhibition of voltage-gated sodium channel (unknown origin) at 10 uM relative to control

## CC1(COc2cc(F)c(C(=O)NS(=O)(=O)C3CC3)cc2C2CC2)CCC2(CC1)CC2
[1]
  half-life: 8.1 h
[2]
  Activity: Active
[3]
  efflux ratio: 1
[4]
  IC50: 38 nM
[5]
  IC50: > 10000 nM
[6]
  clearance: 0.3 mL/min/kg
[7]
  IC50: 2.2 nM
[8]
  inhibition: 91%
[9]
  concentration at 3 h: 50 µM
[10]
  half-life: 5.4 h
[11]
  Activity: Non-Toxic
[12]
  efflux ratio: 1.2
[13]
  bioavailability: 49%
[14]
  IC50: > 10000 nM
[15]
  t1/2: 1.5 h
[16]
  IC50: 6 nM
[17]
  Vdss: 0.41 L/kg
[18]
  Cmax: 22 µM
[19]
  Activity: 99.5%
[20]
  logD: 2.1
[21]
  half-life: 6 h
[22]
  Activity: 98%
[23]
  concentration at 3.167 h: 25 µM
[24]
  IC50: 15 nM
[25]
  AUC: 83 µM·h
[26]
  bioavailability: 68%
[27]
  concentration at 3.167 h: 6.2 µM
[28]
  efflux ratio: 2.1
[29]
  concentration at 3.167 h: 1.9 µM
[30]
  Activity: 10%
[31]
  Papp A→B: 3.7 ×10⁻⁶ cm/s
[32]
  Activity: 86%
[33]
  IC50: 0.6 nM
[34]
  fraction unbound: 0.001
[35]
  inhibition: 80%
